The source of these data is US6290974A, “Protein ingredient for carrying lipophilic nutrients” (priority 1998, dated 2001).

Counter-ions that a name gives are not always drawn. Like-named read-outs stand apart in the source and are kept apart here.

For test [1], the target named is T1, β-lactoglobulin (β-Lg) (Bos taurus, UniProt P02754).
T1 construct: Isolation of β-Lg from Whey; from tissue; host or cells: whey (milk), purified by bioselective adsorption on N-retinyl-Celite
T1 sequence (P02754 17-178): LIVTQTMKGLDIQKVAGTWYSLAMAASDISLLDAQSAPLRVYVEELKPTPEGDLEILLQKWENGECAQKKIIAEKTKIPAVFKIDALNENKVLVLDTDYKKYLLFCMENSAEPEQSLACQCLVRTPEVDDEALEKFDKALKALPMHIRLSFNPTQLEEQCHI
The test is described as follows: Fluorescence titration of β-Lg with ligands (Equation [1]; Kd and n). The class given is binding. Here is the method: (§1) Fluorescence spectra were recorded at 23 ° C. with a System 3 Scanning Spectrofluorometer (Optical Technology Devices, Inc., Elmsford, N.Y.) using the ratio mode. Excitation and emission spectra were obtained with 1 μM solutions of β-Lg in 50 mM sodium phosphate, pH 7.0, both in the presence and absence of 2 μM concentrations of the various ligands. Titration of β-Lg with the various ligands was quantified by measuring the fluorescence quenching of the protein tryptophanyl residues (excitation at 287 nm, emission measured at 332 nm). The spectrofluorometer cuvette contained 2.5 ml of 1 μM β-Lg in the phosphate buffer to which 2.5-μl increments of the ligand solution in ethanol or ethyl ether were added with a micropipette. Dufour et al., (1990) FEBS Lett. 277, 223. […] Cogan et al., (1976) Eur. J. Biochem. 65, 71.
(§2) The titration can also be followed by measuring the increase in vitamin D or cholesterol fluorescence that was due to energy transfer from the tryptophanyl residue. Thus, with excitation at 287 nm, emission was measured at 412 nm for vitamin D or 390 nm for cholesterol.
The titration data can be used to evaluate the equilibrium dissociation constant and the number of binding sites per monomer as has been previously described. Cogan et al., (1976) Eur. J. Biochem. 65, 71; Dufour and Haertle, (1991) Biochim. Biophys. Acta 1079, 316; Wang et al., (1997) J. Dairy Sci. 80, 1047. The linear regression equation
PT a=(1/n)[RT a/(1-a)]-Kd /n
is used to calculate n, the number of binding sites per molecule of protein and Kd, the apparent dissociation constant. In this equation, PT is total protein concentration, and RT is total ligand concentration.
Cho et al., (1994) J. Biol. Chem. 269, 11102; Dufour and Haertle, (1991) Biochim. Biophys. Acta 1079, 316; Wang et al., (1997) J. Dairy Sci. 80, 1047. […] Cho et al., (1994) J. Biol. Chem. 269, 11102; Dufour and Haertle, (1991) Biochim. Biophys. Acta 1079, 316; Wang et al., (1997) J. Dairy Sci. 80, 1047.
(§3) Possible binding of vitamin D3 to β-Lg was also investigated by recording the fluorescence emission at 412 nm as a function of the excitation wavelength for vitamin solutions with and without added β-Lg (FIG. 4). […] In a titration experiment, the protein fluorescence at 332 nm with excitation at 287 nm was determined as a function of vitamin D3 concentration (FIG. 3). […] Also, the increase of vitamin D3 fluorescence at 412 nm with excitation at 287 nm for varying vitamin concentrations can be plotted according to Equation [1] as shown in FIG. 5B.
Dufour and Haertle, (1991) Biochim. Biophys. Acta 1079, 316; Wang et al., (1997) J. Dairy Sci. 80, 1047.
The potential binding of both cholesterol and 7-dehydrocholesterol to β-Lg was examined by fluorescence spectroscopy, essentially as described above for vitamin D (Example 3).
The titration data were used to calculate the equilibrium dissociation constant (Kd) and the number of binding sites per β-Lg monomer (n), as described in Example 3.

The target in test [2] is T1, β-lactoglobulin (β-Lg). Put plainly: Fluorescence emission/excitation spectra of β-Lg with and without ligand. The class given is binding. Conditions: for ligand fluorescence at 412 nm with excitation around 287 nm in presence of β-Lg: 2 μM ligand, 1 μM β-Lg, pH 7.0, 23 °C. As for the experimental part:
as §1, §2
Binding of hydrophobic ligands in proximity to Trp19 results in energy transfer between this protein residue and the ligand, and thus changes in the fluorescence emission spectra can be used to follow complex formation. Fluorescence emission spectra of β-Lg with and without bound vitamin D2 that result from excitation of tryptophanyl residues at 287 nm are shown in FIG. 1.
as §3
The potential binding of both cholesterol and 7-dehydrocholesterol to β-Lg was examined by fluorescence spectroscopy, essentially as described above for vitamin D (Example 3). […] A plot of the data that were obtained with varying cholesterol concentrations according to Equation [1] from Example 3 was similar to that for vitamin D3, shown in FIG. 5.
Studies were undertaken to evaluate whether other fat-soluble vitamins bind to β-Lg. Fluorescence emission spectra of β-Lg in the presence and absence of vitamin E, vitamin K1, or vitamin K2 were obtained essentially as described in Example 3.

The target in test [3] is T1, β-lactoglobulin (β-Lg). Conditions: in vitro; cited from earlier work.
Where [4] appears, read: 1 μM β-Lg, 50 mM phosphate pH 7.0, 23 °C, triplicate titrations (vitamin D2: five; ergosterol: single).

As to `C=C1CC[C@H](O)C/C1=C/C=C1\CCC[C@]2(C)[C@@H]([C@H](C)CCCC(C)C)CC[C@@H]12` [Vitamin D3, cholecalciferol], the Kd at β-lactoglobulin (β-Lg) [1] turned out to be 36 nM; on β-lactoglobulin (β-Lg) [1] (Kd, Table 2, β-Lg titration as in Example 3), 36 nM. In addition, the “n (number of binding sites per molecule of protein), Table 1” value on β-lactoglobulin (β-Lg) [1] (setting [4]) is 2.01 mol/mol of protein. Moreover, the “molecules bound per molecule of protein” value at β-lactoglobulin (β-Lg) [1] (per molecule of protein / β-Lg monomer) stood at 2 molecules. The “n, Table 2” value at β-lactoglobulin (β-Lg) [1] (β-Lg titration as in Example 3) is recorded as 2.0 mol/mol β-LG. For the same molecule, on β-lactoglobulin (β-Lg) [2], the “ligand fluorescence at 412 nm with excitation around 287 nm in presence of β-Lg” value is on record as “increased intensity”.

`CC1=CC(=O)c2ccccc2C1=O` [Vitamin K3, menadione]: the “β-Lg fluorescence, 300 to 360 nm” value on β-lactoglobulin (β-Lg) [2] is on record as “No quenching”. Further, on β-lactoglobulin (β-Lg) [2] (inferred from absence of quenching), the “binding in the β-Lg calyx” value is “does not bind”.

In the case of `C=CC1=C(C)c2cc3[nH]c(cc4nc(cc5[nH]c(cc1n2)c(C)c5CCC(=O)O)C(CCC(=O)O)=C4C)c(C)c3C=C` [protoporphyrin IX], the “binding to β-Lg reported (in words)” value at β-lactoglobulin (β-Lg) [3] was “reported to bind”.

Turning to `C=C1CC[C@H](O)C/C1=C/C=C1\CCC[C@]2(C)[C@@H]([C@H](C)/C=C/[C@H](C)C(C)C)CC[C@@H]12` [Vitamin D2, ergocalciferol], at β-lactoglobulin (β-Lg) [1], the “mol bound per mol of protein (Example 4)” value worked out at 2 mol~mol^-1. Moreover, at β-lactoglobulin (β-Lg) [1] (setting [4]), the “n (number of binding sites per molecule of protein), Table 1” value was 2.00 mol/mol of protein. For the same molecule, the Kd was 4.91 nM at β-lactoglobulin (β-Lg) [1] (1 μM β-Lg, 50 mM phosphate pH 7.0, 23 °C, triplicate titrations (vitamin D2: five; ergosterol: single), read-out: Kd (apparent dissociation constant), Table 1); 4.91 ± 3.28 nM at β-lactoglobulin (β-Lg) [1] (quenching at 332 nm, excitation 287 nm, five titrations, 1 μM β-Lg, read-out: Kd); 4.9 nM at β-lactoglobulin (β-Lg) [1] (β-Lg titration as in Example 3, read-out: Kd, Table 2). Also, on β-lactoglobulin (β-Lg) [1] (1 μM β-Lg, emission 332 nm), the “ligand concentration at which fluorescence quenching appeared to reach a maximum” value was roughly 2 µM. Besides, the “binding affinity, comparative (in words)” value on β-lactoglobulin (β-Lg) [1] (compared with other ligands of Table 1 or the retinoids) is recorded as “significantly greater”. For the same molecule, the “affinity of β-Lg relative to that for vitamin A and other retinoids (greater by)” value at β-lactoglobulin (β-Lg) [1] (compared with vitamin A and other retinoids) is recorded as “about 10 fold”. Also, at β-lactoglobulin (β-Lg) [1] (quenching at 332 nm, excitation 287 nm, five titrations, 1 μM β-Lg), the “n” value was determined as 2.00±0.16. Also, the “n, Table 2” value at β-lactoglobulin (β-Lg) [1] (β-Lg titration as in Example 3) is 2.0 mol/mol β-LG. Moreover, the “β-Lg fluorescence, 300 to 360 nm” value at β-lactoglobulin (β-Lg) [2] is “quenched”. Besides, on β-lactoglobulin (β-Lg) [2], the “ligand fluorescence at 412 nm with excitation around 287 nm in presence of β-Lg” value was “increased”.

Consider `CCCCCCCCCCCCCCCC(=O)OC/C=C(C)/C=C/C=C(C)/C=C/C1=C(C)CCCC1(C)C` [Retinyl palmitate (P), Retinyl palmitate], for which, at β-lactoglobulin (β-Lg) [1] (β-Lg titration as in Example 3), the “n, Table 2” value is 1.2 mol/mol β-LG.

With `Cc1c2ccncc2c(C)c2c1[nH]c1ccccc12` [ellipticine], the “binding to β-Lg reported (in words)” value on β-lactoglobulin (β-Lg) [3] was “reported to bind”.

As to `CC(C)CCC[C@@H](C)[C@H]1CC[C@H]2C3=CC=C4C[C@@H](O)CC[C@]4(C)[C@H]3CC[C@]12C` [7-Dehydrocholesterol, 7-dehydrocholesterol], on β-lactoglobulin (β-Lg) [1], the Kd is 26.7 nM. In addition, the “n (number of binding sites per molecule of protein), Table 1” value on β-lactoglobulin (β-Lg) [1] (setting [4]) was 1.65 mol/mol of protein. In addition, the “energy transfer between protein tryptophanyl residues and ligand” value on β-lactoglobulin (β-Lg) [2] (emission 390 nm) is listed as “energy was transferred”.

On to `C=C1CC[C@H](OS(=O)(=O)O)C/C1=C/C=C1\CCC[C@]2(C)[C@@H]([C@H](C)CCCC(C)C)CC[C@@H]12` [Vitamin D3 sulfate, vitamin D3 sulfate], for which, on β-lactoglobulin (β-Lg) [1], the Kd is 30.3 nM and the “mol bound per mol of protein (Example 4)” value amounted to 2 mol~mol^-1. Moreover, the “n (number of binding sites per molecule of protein), Table 1” value at β-lactoglobulin (β-Lg) [1] (setting [4]) is 1.74 mol/mol of protein.
